Columns and labels:
[1] = Pharmacokinetic evaluation, single dosing (oral and intravenous) in rats; type: in vivo, male Sprague-Dawley rats; parameters: unit not given here; settings: rat, plasma
Procedure: Pharmacokinetic profile for test compound was measured by single dosing in male Sprague-Dawley rats. Animal weights were typically over 200 grams, and animals were allowed to acclimate to their new environment for at least 3 days prior to the initiation of any studies. One set of animals was dosed intravenous with test compound, 2 mg/kg in 20% PEG400, 10% HS-15 Solutol, 70% 50 mM citrate buffer (pH 4.0). Intravenous dosing solution concentration was 1.0 mg/mL. Time of blood sampling was 5 minutes, 15 minutes, 30 minutes, 1 hour, 2 hours, 4 hours, 8 hours, and 24 hours following intravenous dosing. Another set of animals was dosed orally with test compound, 30 mg/kg in 20% PEG400, 10% HS-15 Solutol, 70% 50 mM citrate buffer (pH 4.0). Oral dosing solution concentration was 3.0 mg/mL. Time of blood sampling was 15 minutes, 30 minutes, 1 hour, 2 hours, 4 hours, 8 hours, and 24 hours following oral dosing. Blood samples (˜0.2 mL/sample) were collected via jugular vein and placed in tubes containing Heparin-Na. The blood samples in tubes were mixed and then placed on wet ice prior to centrifugation for plasma. The blood samples were centrifuged at 4000 g for 5 minutes at 4° C. to obtain plasma. The obtained plasma was separated and stored frozen at approximately −80° C.
All the plasma samples were analyzed using a Shimadzu (DGU-405) HPLC with an API 6500+MS/MS system following the manufacturer's instructions. All the analytes were detected with positive-mode electrospray ionization (ES+). A standard curve for each test compound was generated and used to measure test compound concentrations in the rat plasma samples. Based on the time course sampling, an area under the curve (AUC) was calculated for the oral group and intravenous group. The percentage of rat bioavailability is calculated based on the equation shown below.
where F is bioavailability, AUCPO is area under curve of oral dosing, AUCIV is area under curve of intravenous dosing, DoseIV is the intravenous dose and DosePO is the oral dose. The oral dosing for the experiments presented in Table 5 was performed at 10 mg/kg unless noted otherwise.

[2] = tested on: KRAS G12V dependent lung adenocarcinoma cell line, NCI-H441; experiment: Cellular pERK (Thr202/Tyr204) FRET/HTRF assay; type: cell-based; settings: Homo sapiens
Summary of the method: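 IC50 reflects inhibition of ERK1/2 Thr202/Tyr204 phosphorylation, quantified by HTRF after a 1 hr treatment of KRAS G12V-driven NCI-H441 cells. DMSO served as negative control.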

KRAS (G12V)/CRAF = KRAS (G12V)/CRAF (Homo sapiens (Human), UniProt P01116, G12V); experiment: TR-FRET biochemical KRAS:CRAF protein:protein interaction assay, KRAS (G12V); type: binding; settings: GMPPNP loaded Biotin-KRAS (G12V), FLAG CRAF RBD; read-out: TR-Fret_PPI KRAS (G12V)/CRAF IC50
Procedure: (§1) The effect of test compounds on KRAS and CRAF protein: protein interaction (PPI) was measured by time resolved fluorescence resonance energy transfer (TR-FRET) Ras binding domain (RBD) assay, which uses a signal generated through fluorescent resonance energy transfer between a donor and an acceptor molecule when in close proximity to each other. Interference from buffer, media, etc. is reduced by dual-wavelength detection; the energy pulse from the excitation source is followed by a time delay, which allows interfering short-lived fluorescence to decay (Degorce et al. 2009).
(§2) The KRAS: CRAF PPI assay can be utilized to identify KRAS ‘ON’ state inhibitors, as the KRAS protein is loaded with GMPPNP (a non-hydrolyzable GTP analog), which represents the active KRAS ‘ON’ state. FLAG-tagged CRAF RBD binding to the GMPPNP loaded biotin-tagged KRAS will result in a fluorescence energy transfer from the donor (Tb-anti-FLAG, emission 620 nm) to the acceptor (SA-XL665, emission 665 nm). Disruption of KRAS and CRAF binding will reduce the TR-FRET signal.
(§3) Test compound was dissolved in DMSO to create a 1 mM stock solution. A 45 μL volume of stock solution was transferred to a 384well polypropylene plate. A 3fold, 10point dilution was performed by transferring 15 μL of test compound solution into 30 μL of DMSO.
(§4) Assay buffer A was prepared with […] Hepes, pH7.3, 0.002% Tween 20, 0.1% BSA, […] NaCl, 5 mM MgCl2, and 10 uM GMP-PNP. 4× KRAS Solution was prepared with 80 nM of Biotin-KRAS (G12D/V), GMPPNP loaded or Biotin-KRAS (WT), GMPPNP loaded protein in assay buffer A. 4× Raf RBD Solution was prepared with 400 nM FLAG CRAF RBD in assay buffer A. 2× Detection Mixture was prepared with 2 nM Tb-anti-FLAG antibody and 10 nM and 10 nM SA-XL665 in assay buffer A.
(§5) A volume of 100 nL of 100× test compound working solution or DMSO vehicle control solution was dispensed to each well (duplicate for each concentration) of a 384-well ProxiPlate Plus assay plate. A volume of 2.5 μL of 4× KRAS Solution was added to each well of the assay plate for a final concentration of 20 nM Biotin-KRAS (G12D/V),GMPPNP loaded or 20 nM Biotin-KRAS (WT), GMPPNP. For low control, add 2.5 μL of assay buffer (no KRAS protein). Pre-incubate assay plate for 30 minutes at room temperature. Following pre-incubation of test compound or DMSO with Biotin-KRAS (G12D/V),GMPPNP loaded or Biotin-KRAS (WT),GMPPNP, a volume of 2.5 μL of 4× FLAG cRAF RBD Solution was added to each well of the assay plate for a final concentration of 100 nM FLAG CRAF RBD. The assay plate was subjected to centrifuge at 1000 rpm for 1 minute and pre-incubate assay plate for 150 minutes at room temperature. Following the pre-incubation with FLAG cRAF RBD, a volume of 5 μl of 2× Detection Mixture was added to each well of the assay plate for a final concentration of 1 nM Tb-anti-FLAG and 5 nM SA-XL665. The assay plate was centrifuged at 1000 rpm for 1 minute and incubated for 90 minutes at room temperature. TR-FRET signal was measured on a BioTek Synergy Neo2 microplate reader (excitation at 340 nm, emission at 665 nn and 620 nm).
(§6) TR-FRET ratios were calculated by dividing the acceptor emission value (665 nm) by the donor emission value (620 nm) for each sample.
(§7) Percent inhibition was calculated by multiplying the normalized TR-FRET ratio by 100, where TR-FRET ratio^HIGH was the TR-FRET ratio obtained from wells with 1% DMSO and complete reaction mixture, TR-FRET ratio^LOW was the ratio obtained from wells with 1% DMSO and reaction mixture without KRAS protein and TR-FRET ratio^SAMPLE was the TR-FRET ratio from wells with test compound and complete reaction mixture. The IC50 values were calculated from normalized TR-FRET ratios with the Levenberg-Marquardt 4 parameter fitting procedure.
(§8) This assay quantifies the interaction of a KRAS mutant protein (e.g., G12V) with the CRAF Ras-binding domain (RBD). […]

KRAS (G12D)/CRAF = KRAS (G12D)/CRAF (Homo sapiens (Human), UniProt P01116, G12D); experiment: TR-FRET biochemical KRAS:CRAF protein:protein interaction assay, KRAS (G12D); type: binding; settings: GMPPNP loaded Biotin-KRAS (G12D), FLAG CRAF RBD; read-out: TR-Fret_PPI KRAS (G12D)/CRAF IC50
Procedure: as §1, §2, §3, §4, §5, §6, §7, §8

[3] = NCI-H441, pERK HTRF, NCI-H441 cells (KRAS G12V)
[4] = NCI-H441, cellular pERK (Thr202/Tyr204) HTRF, NCI-H441 cells

KRAS (G12D)/CRAF, sequence (P01116-2 other isoform, or with tags, fused parts or gaps G12D): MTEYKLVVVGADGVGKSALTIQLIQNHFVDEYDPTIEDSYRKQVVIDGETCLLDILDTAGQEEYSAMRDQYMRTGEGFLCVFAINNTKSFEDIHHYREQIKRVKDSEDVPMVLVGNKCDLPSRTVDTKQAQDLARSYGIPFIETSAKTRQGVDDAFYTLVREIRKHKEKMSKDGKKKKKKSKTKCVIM
KRAS (G12V)/CRAF, sequence (P01116-2 other isoform, or with tags, fused parts or gaps G12V): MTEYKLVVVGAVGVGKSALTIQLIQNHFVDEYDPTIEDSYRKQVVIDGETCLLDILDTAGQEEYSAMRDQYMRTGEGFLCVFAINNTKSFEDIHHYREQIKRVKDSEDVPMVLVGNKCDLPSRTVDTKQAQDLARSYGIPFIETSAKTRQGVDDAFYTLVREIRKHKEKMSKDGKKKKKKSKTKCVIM

With `[2H]C([2H])(Oc1nc(N2CCCO[C@H]3C(F)[C@H]32)c2cnc(-c3cc(N)cc4ccc(F)c(C#C)c34)c(F)c2n1)[C@@]12CCCN1C[C@H](F)C2` (stereo in doubt) [Example 89, 5-Ethynyl-6-fluoro-4-(8-fluoro-4-((1R,7S,8R)-8-fluoro-2-oxa-6-azabicyclo[5.1.0]octan-6-yl)-2-(((2R,7aS)-2-fluorotetrahydro-1H-pyrrolizin-7a(5H)-yl)methoxy-d2)pyrido[4,3-d]pyrimidin-7-yl)naphthalen-2-amine] the “IV (dose 2 mg/kg) (AUC/D) (h*mg/mL)” value [1] was 323, the “PO (dose 10 mg/kg) (AUC/D) (h*mg/mL)” value ([1]; oral) was 22 and the IC50 [2, 3] was under 50 nM.
In the case of `[2H]C([2H])(Oc1nc(N2CCCO[C@H]3[C@H](F)[C@H]32)c2cnc(-c3cc(N)cc4cc(F)c(F)c(C#C)c34)c(F)c2n1)[C@@]12CCCN1C[C@H](F)C2` [Example 24, 5-Ethynyl-6,7-difluoro-4-(8-fluoro-4-((1R,7S,8R)-8-fluoro-2-oxa-6-azabicyclo[5.1.0]octan-6-yl)-2-(((2R,7aS)-2-fluorotetrahydro-1H-pyrrolizin-7a(5H)-yl)methoxy-d2)pyrido[4,3-d]pyrimidin-7-yl)naphthalen-2-amine], the “IV (dose 2 mg/kg) (AUC/D) (h*mg/mL)” value [1] is reported as 405, the “PO (dose 10 mg/kg) (AUC/D) (h*mg/mL)” value ([1]; oral) is reported as 35 and the IC50 [2, 3] is reported as under 50 nM.
In the case of `[2H]C([2H])([2H])Oc1c(F)ccc2cc(N)cc(-c3ncc4c(N5CCCC[C@H]6[C@H](F)[C@H]65)nc(OC([2H])([2H])[C@@]56CCCN5C[C@H](F)C6)nc4c3F)c12` [Example 58, 6-Fluoro-4-(8-fluoro-4-((1S,7R,8S)-8-fluoro-2-azabicyclo[5.1.0]octan-2-yl)-2-(((2R,7aS)-2-fluorotetrahydro-1H-pyrrolizin-7a(5H)-yl)methoxy-d2)pyrido[4,3-d]pyrimidin-7-yl)-5-(methoxy-d3)naphthalen-2-amine], the “IV (dose 2 mg/kg) (AUC/D) (h*mg/mL)” value [1] is reported as 1401, the “PO (dose 10 mg/kg) (AUC/D) (h*mg/mL)” value ([1]; oral) is reported as 432 and the IC50 [2, 3] is reported as under 50 nM.
For `[2H]C([2H])([2H])Oc1c(F)ccc2cc(N)cc(-c3ncc4c(N5CCOC[C@H]6[C@H](F)[C@H]65)nc(OC([2H])([2H])[C@@]56CCCN5C[C@H](F)C6)nc4c3F)c12` [Example 90, 6-Fluoro-4-(8-fluoro-4-((1S,7S,8S)-8-fluoro-5-oxa-2-azabicyclo[5.1.0]octan-2-yl)-2-(((2R,7aS)-2-fluorotetrahydro-1H-pyrrolizin-7a(5H)-yl)methoxy-d2)pyrido[4,3-d]pyrimidin-7-yl)-5-(methoxy-d3)naphthalen-2-amine], the “IV (dose 2 mg/kg) (AUC/D) (h*mg/mL)” value [1] was 1086, the “PO (AUC/D) (h*mg/mL), dose 30 mg/kg” value ([1]; oral, dose 30 mg/kg) was 352 and the IC50 [2, 3] was under 50 nM.
With `[2H]C([2H])([2H])Oc1c(F)ccc2cc(N)cc(-c3ncc4c(N5CCCO[C@H]6[C@H](F)[C@H]65)nc(OC([2H])([2H])[C@@]56CCCN5C[C@H](F)C6)nc4c3F)c12` [Example 91, 6-Fluoro-4-(8-fluoro-4-((1R,7S,8R)-8-fluoro-2-oxa-6-azabicyclo[5.1.0]octan-6-yl)-2-(((2R,7aS)-2-fluorotetrahydro-1H-pyrrolizin-7a(5H)-yl)methoxy-d2)pyrido[4,3-d]pyrimidin-7-yl)-5-(methoxy-d′3) naphthalen-2-amine] the “IV (dose 2 mg/kg) (AUC/D) (h*mg/mL)” value [1] was 609, the “PO (dose 10 mg/kg) (AUC/D) (h*mg/mL)” value ([1]; oral) was 142 and the IC50 [2, 3] was under 50 nM.
Compound `[2H]C([2H])(Oc1nc(N2CCCC[C@H]3[C@H](Cl)[C@H]32)c2cnc(-c3cc(N)cc4ccc(F)c(C#C)c34)c(F)c2n1)[C@@]12CCCN1C[C@H](F)C2` [Example 342, 4-(4-((1S,7R,8S)-8-chloro-2-azabicyclo[5.1.0]octan-2-yl)-8-fluoro-2-(((2R,7aS)-2-fluorotetrahydro-1H-pyrrolizin-7a(5H)-yl)methoxy-d2)pyrido[4,3-d]pyrimidin-7-yl)-5-ethynyl-6-fluoronaphthalen-2-amine] has an IC50 (KRAS (G12V)/CRAF) of 54.7 nM, an IC50 [2, 4] of under 50 nM and an IC50 (KRAS (G12D)/CRAF) of 9.04 nM.
In the case of `[2H]C([2H])(Oc1nc(N2CCCC[C@@H]3[C@H](Cl)[C@@H]32)c2cnc(-c3cc(N)cc4ccc(F)c(C#C)c34)c(F)c2n1)[C@@]12CCCN1C[C@H](F)C2` [Example 343, 4-(4-((1R,7S,8S)-8-chloro-2-azabicyclo[5.1.0]octan-2-yl)-8-fluoro-2-(((2R,7aS)-2-fluorotetrahydro-1H-pyrrolizin-7a(5H)-yl)methoxy-d2)pyrido[4,3-d]pyrimidin-7-yl)-5-ethynyl-6-fluoronaphthalen-2-amine], the IC50 (KRAS (G12V)/CRAF) is reported as at least 10000 nM, the IC50 [2, 4] is reported as 500 to 10000 nM and the IC50 (KRAS (G12D)/CRAF) is reported as 3000 nM.
With `[2H]C([2H])(Oc1nc(N2CCCC[C@H]3[C@@H](Cl)[C@H]32)c2cnc(-c3cc(N)cc4ccc(F)c(C#C)c34)c(F)c2n1)[C@@]12CCCN1C[C@H](F)C2` [Example 344, 4-(4-((1S,7R,8R)-8-chloro-2-azabicyclo[5.1.0]octan-2-yl)-8-fluoro-2-(((2R,7aS)-2-fluorotetrahydro-1H-pyrrolizin-7a(5H)-yl)methoxy-d2)pyrido[4,3-d]pyrimidin-7-yl)-5-ethynyl-6-fluoronaphthalen-2-amine] the IC50 (KRAS (G12V)/CRAF) was at least 10000 nM, the IC50 [2, 4] was 500 to 10000 nM and the IC50 (KRAS (G12D)/CRAF) was 1930 nM.

Source: patent US20250282799A1, “SUBSTITUTED PYRIDO[4,3-d]PYRIMIDINES AS KRAS MODULATORS” (Alterome Therapeutics, Inc., priority 2023, published 2025)
